Assay results from PubChem BioAssay AID1259411 (Chemical Carcinogenesis Research Information System (CCRIS), 2018).
The source made the active and inactive calls. No rule for the calls is given here.

Test system: rodent carcinogenicity bioassays, tumor incidence
Assay: CCRIS carcinogenicity studies
Outline: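 NCI-built, expert-reviewed records of carcinogenicity and related test outcomes (mutagenicity, tumor promotion/inhibition) compiled from published and report sources, historical span 1985-2011, not updated.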

Which carcinogen call (Species: MOUSE, Strain/Sex: CD-1/MALE, Route: GAVAGE, Dose: 0, 2.5, 25, 250 MG/KG/D FOR 83 WK (STUDY DURATION: 83 WK), Dose: 0, 2.5, 25, 250 MG/KG/D FOR 83 WK (STUDY DURATION: 83 WK), Tumor Site: Type of Lesion: TESTES: LEYDIG CELL ADENOMA) does the source give for `CC(C)(C)NC(=O)[C@H]1CC[C@H]2[C@@H]3CC[C@H]4NC(=O)C=C[C@]4(C)[C@H]3CC[C@]12C` here?
The carcinogen call was “active; positive”.

For `CNC(=O)Oc1cccc2c1OC(C)(C)C2`, which carcinogen call (Species: MOUSE, Strain/Sex: ICR/FEMALE, Route: ORAL, Dose: 0, 3, 8 PPM IN DRINKING WATER FOR 12 MO (STUDY DURATION: 12 MO), Dose: 0, 3, 8 PPM IN DRINKING WATER FOR 12 MO (STUDY DURATION: 12 MO)) is on record?
The carcinogen call was “inactive; negative”.

What about the carcinogen call (Species: MOUSE, Strain/Sex: ICR/MALE, Route: ORAL, Dose: 0, 3, 8 PPM IN DRINKING WATER FOR 12 MO (STUDY DURATION: 12 MO), Dose: 0, 3, 8 PPM IN DRINKING WATER FOR 12 MO (STUDY DURATION: 12 MO)) of the same compound?
Its carcinogen call is “inactive; negative”.

What about the carcinogen call (Species: Mouse, Strain/Sex: Charles River CD-1/Female (60/group), Route: Oral, Dose: 0, 20, 125, 500 ppm in diet for 2 yrs, Dose: 0, 20, 125, 500 ppm in diet for 2 yrs) of the same compound?
Its carcinogen call is “inactive; negative (study details not given in source; purity 95.6%)”.

And the carcinogen call (Species: Mouse, Strain/Sex: Charles River CD-1/Male (60/group), Route: Oral, Dose: 0, 20, 125, 500 ppm in diet for 2 yrs, Dose: 0, 20, 125, 500 ppm in diet for 2 yrs)?
The carcinogen call was “inactive; negative (study details not given in source; purity 95.6%)”.

What about the carcinogen call (Species: Rat, Strain/Sex: Charles River CD/Female (60/group), Route: Oral, Dose: 0, 10, 20, 100 ppm in diet for 2 yrs, Dose: 0, 10, 20, 100 ppm in diet for 2 yrs) of the same compound?
The carcinogen call was “inactive; negative (study details not given in source; purity 95.6%)”.

What about the carcinogen call (Species: Rat, Strain/Sex: Charles River CD/Male (60/group), Route: Oral, Dose: 0, 10, 20, 100 ppm in diet for 2 yrs, Dose: 0, 10, 20, 100 ppm in diet for 2 yrs) of the same compound?
Its carcinogen call is “inactive; negative (study details not given in source; purity 95.6%)”.

Which results are given for `COc1ccc(C(=O)/C(Br)=C\C(=O)O)cc1`?
carcinogen call (Species: MOUSE, Strain/Sex: B6C3F1/FEMALE, Route: INTRAPERITONEAL, Dose: 0, 12, 24 MG/KG 3/WK FOR 104 WK (STUDY DURATION: 104-105 WK), Dose: 0, 12, 24 MG/KG 3/WK FOR 104 WK (STUDY DURATION: 104-105 WK)): inactive; negative; carcinogen call (Species: MOUSE, Strain/Sex: B6C3F1/MALE, Route: INTRAPERITONEAL, Dose: 0, 12, 24 MG/KG 3/WK FOR 104 WK (STUDY DURATION: 104-105 WK), Dose: 0, 12, 24 MG/KG 3/WK FOR 104 WK (STUDY DURATION: 104-105 WK)): inactive; negative; carcinogen call (Species: RAT, Strain/Sex: F344/FEMALE, Route: INTRAPERITONEAL, Dose: 0, 7, 14 MG/KG 3/WK FOR 104 WK (STUDY DURATION: 104-105 WK), Dose: 0, 7, 14 MG/KG 3/WK FOR 104 WK (STUDY DURATION: 104-105 WK), Tumor Site: Type of Lesion: MAMMARY GLAND: FIBROADENOMA): active; positive; carcinogen call (Species: RAT, Strain/Sex: F344/MALE, Route: INTRAPERITONEAL, Dose: 0, 7, 14 MG/KG 3/WK FOR 104 WK (STUDY DURATION: 104-105 WK), Dose: 0, 7, 14 MG/KG 3/WK FOR 104 WK (STUDY DURATION: 104-105 WK), Tumor Site: Type of Lesion: MULTIPLE SITES: MALIGNANT MESOTHELIOMA, TUNICA VAGINALIS: MESOTHELIOMA): active; positive

How did the carcinogen call (Species: HAMSTER, Strain/Sex: SYRIAN/MALE,FEMALE, Route: INTRAVENOUS, Dose: 10 MG/KG BW, 4-5 INJ, Tumor Site: Type of Lesion: LIVER: CYSTADENOMA AND CYSTIC LESIONS, VASCULAR TUMOR, HEPATOCELLULAR CARCINOMA, INTESTINES (LARGE): ADENOMA, ADENOCARCI) turn out when `C/[N+]([O-])=N/CO` was run?
The carcinogen call was “active; positive”.

And the carcinogen call (Species: HAMSTER, Strain/Sex: SYRIAN/MALE,FEMALE, Route: INTRAVENOUS, Dose: 15 MG/KG BW, 4-5 INJ, Tumor Site: Type of Lesion: LIVER: CYSTADENOMA AND CYSTIC LESIONS, VASCULAR TUMOR, HEPATOCELLULAR CARCINOMA, INTESTINES (LARGE): ADENOMA, ADENOCARCI)?
The carcinogen call was “active; positive”.

And the carcinogen call (Species: HAMSTER, Strain/Sex: SYRIAN/MALE,FEMALE, Route: INTRAVENOUS, Dose: 20 MG/KG BW, 3 INJ, Tumor Site: Type of Lesion: LIVER: CYSTADENOMA AND CYSTIC LESIONS, GALL BLADDER: ADENOCARCINOMA, INTESTINES (LARGE): ADENOCARCINOMA, Tumor Site: Type of Lesion: LIVER: CYSTADENOMA AND CYSTIC LESIONS, GALL BLADDER: ADENOCARCINOMA, INTESTINES (LARGE): ADENOCARCINOMA)?
Its carcinogen call is “active; positive”.

And the carcinogen call (Species: HAMSTER, Strain/Sex: SYRIAN/MALE,FEMALE, Route: INTRAVENOUS, Dose: 20 MG/KG BW, SINGLE DOSE, Tumor Site: Type of Lesion: LIVER: ADENOCARCINOMA, HEPATOCELLULAR CARCINOMA, VASCULAR TUMOR, CYSTADENOMA AND CYSTIC LESIONS, INTESTINES (LARGE): ADE)?
Its carcinogen call is “active; positive”.

And the carcinogen call (Species: RAT, Strain/Sex: SPRAGUE-DAWLEY/MALE, Route: INTRAVENOUS, Dose: 25 MG/KG 1/WK FOR 5 WK, Tumor Site: Type of Lesion: INTESTINES (JEJUNUM OR ILEUM), INTESTINES (COLON OR RECTUM), CECUM, DUODENUM, Tumor Site: Type of Lesion: INTESTINES (JEJUNUM OR ILEUM), INTESTINES (COLON OR RECTUM), CECUM, DUODENUM)?
The carcinogen call was “active; positive”.

What about the carcinogen call (Species: RAT, Strain/Sex: SPRAGUE-DAWLEY/MALE, Route: INTRAVENOUS, Dose: 25 MG/KG 1/WK FOR 15 WK, Tumor Site: Type of Lesion: INTESTINES (JEJUNUM OR ILEUM), INTESTINES (COLON OR RECTUM), CECUM, DUODENUM, Tumor Site: Type of Lesion: INTESTINES (JEJUNUM OR ILEUM), INTESTINES (COLON OR RECTUM), CECUM, DUODENUM) of the same compound?
The carcinogen call was “active; positive”.

What about the carcinogen call (Species: RAT, Strain/Sex: SPRAGUE-DAWLEY/MALE, Route: INTRAVENOUS, Dose: 25 MG/KG, SINGLE DOSE, Tumor Site: Type of Lesion: INTESTINES (JEJUNUM OR ILEUM), INTESTINES (COLON OR RECTUM)) of the same compound?
Its carcinogen call is “active; positive”.
